Measured values taken from the NIST ThermoML archive (doi:10.1021/je0497303).

Assay: xn = mol fraction of the nth substance listed
Details: 101.3 kPa, Liquid, Taylor dispersion method

SMILES | binary diffusion coefficient (298.15 K, x2 = 0.03) | binary diffusion coefficient (298.15 K, x2 = 0.1) | binary diffusion coefficient (298.15 K, x2 = 0.3) | binary diffusion coefficient (298.15 K, x2 = 0.5) | binary diffusion coefficient (298.15 K, x2 = 0.7) | binary diffusion coefficient (298.15 K, x2 = 0.9) | binary diffusion coefficient (298.15 K, x2 = 0.97) | binary diffusion coefficient (298.15 K, x2 = 0) | binary diffusion coefficient (298.15 K, x2 = 1) | further results
C1CCCCC1 [cyclohexane] + CCCO | 8.3e-10 m2/s | 6.6e-10 m2/s | 3.9e-10 m2/s | 4.2e-10 m2/s | 6.5e-10 m2/s | 1e-09 m2/s | 1.15e-09 m2/s |  |  | 
C1CCCCC1 [cyclohexane] + CCO | 9.9e-10 m2/s | 7.7e-10 m2/s | 4.3e-10 m2/s | 4.6e-10 m2/s | 7.3e-10 m2/s | 1.23e-09 m2/s | 1.41e-09 m2/s |  |  | 
CCO [ethanol] + O |  |  |  |  |  |  |  |  |  | binary diffusion coefficient (298.15 K, x1 = 0.1): 7e-10 m2/s; binary diffusion coefficient (298.15 K, x1 = 0.2): 4.1e-10 m2/s; binary diffusion coefficient (298.15 K, x1 = 0.3): 3.8e-10 m2/s; binary diffusion coefficient (298.15 K, x1 = 0.5): 5.1e-10 m2/s; binary diffusion coefficient (298.15 K, x1 = 0.7): 7.6e-10 m2/s; binary diffusion coefficient (298.15 K, x1 = 0.9): 1.08e-09 m2/s
CCCCCC [hexane] + CCCO | 3.37e-09 m2/s | 2.17e-09 m2/s | 1.38e-09 m2/s | 1.15e-09 m2/s | 1.08e-09 m2/s | 1.09e-09 m2/s | 1.03e-09 m2/s | 5.2e-09 m2/s | 1.02e-09 m2/s | 
CCCCCC [hexane] + CCO | 4.07e-09 m2/s | 2.41e-09 m2/s | 1.54e-09 m2/s | 1.3e-09 m2/s | 1.3e-09 m2/s | 1.43e-09 m2/s | 1.54e-09 m2/s | 5.74e-09 m2/s | 1.6e-09 m2/s | 
CO [methanol] + O |  |  |  |  |  |  |  |  |  | binary diffusion coefficient (298.15 K, x1 = 0): 1.57e-09 m2/s; binary diffusion coefficient (298.15 K, x1 = 0.1): 1.22e-09 m2/s; binary diffusion coefficient (298.15 K, x1 = 0.3): 9.5e-10 m2/s; binary diffusion coefficient (298.15 K, x1 = 0.5): 1.03e-09 m2/s; binary diffusion coefficient (298.15 K, x1 = 0.7): 1.37e-09 m2/s; binary diffusion coefficient (298.15 K, x1 = 0.9): 1.87e-09 m2/s; binary diffusion coefficient (298.15 K, x1 = 0.97): 2.05e-09 m2/s
ClC(Cl)(Cl)Cl [tetrachloromethane] + CCCCO | 7e-10 m2/s | 5e-10 m2/s | 2.9e-10 m2/s | 3.2e-10 m2/s | 5.4e-10 m2/s | 6.5e-10 m2/s | 6.9e-10 m2/s | 1.47e-09 m2/s | 7.2e-10 m2/s | binary diffusion coefficient (308.15 K, x2 = 0): 1.74e-09 m2/s; binary diffusion coefficient (308.15 K, x2 = 0.03): 9.3e-10 m2/s; binary diffusion coefficient (308.15 K, x2 = 0.1): 7.1e-10 m2/s; binary diffusion coefficient (308.15 K, x2 = 0.3): 5.2e-10 m2/s; binary diffusion coefficient (308.15 K, x2 = 0.5): 5.6e-10 m2/s; binary diffusion coefficient (308.15 K, x2 = 0.7): 6.5e-10 m2/s; binary diffusion coefficient (308.15 K, x2 = 0.9): 8e-10 m2/s; binary diffusion coefficient (308.15 K, x2 = 0.97): 8.9e-10 m2/s; binary diffusion coefficient (308.15 K, x2 = 1): 9.4e-10 m2/s
ClC(Cl)(Cl)Cl [tetrachloromethane] + CCCO | 8.3e-10 m2/s | 6.1e-10 m2/s | 3.9e-10 m2/s | 4.6e-10 m2/s | 6.6e-10 m2/s | 8.3e-10 m2/s | 9.1e-10 m2/s | 1.61e-09 m2/s | 9.5e-10 m2/s | 
ClC(Cl)(Cl)Cl [tetrachloromethane] + CCO | 1.06e-09 m2/s | 8.2e-10 m2/s | 6.4e-10 m2/s | 7.3e-10 m2/s | 9.9e-10 m2/s | 1.32e-09 m2/s | 1.43e-09 m2/s | 1.9e-09 m2/s | 1.47e-09 m2/s | binary diffusion coefficient (303.15 K, x2 = 0): 2.15e-09 m2/s; binary diffusion coefficient (303.15 K, x2 = 0.03): 1.6e-09 m2/s; binary diffusion coefficient (303.15 K, x2 = 0.1): 9.9e-10 m2/s; binary diffusion coefficient (303.15 K, x2 = 0.3): 8.3e-10 m2/s; binary diffusion coefficient (303.15 K, x2 = 0.5): 8.7e-10 m2/s; binary diffusion coefficient (303.15 K, x2 = 0.7): 1.14e-09 m2/s; binary diffusion coefficient (303.15 K, x2 = 0.9): 1.45e-09 m2/s; binary diffusion coefficient (303.15 K, x2 = 0.97): 1.56e-09 m2/s; binary diffusion coefficient (303.15 K, x2 = 1): 1.61e-09 m2/s; binary diffusion coefficient (308.15 K, x2 = 0): 2.24e-09 m2/s; binary diffusion coefficient (308.15 K, x2 = 0.03): 1.8e-09 m2/s; binary diffusion coefficient (308.15 K, x2 = 0.1): 1.1e-09 m2/s; binary diffusion coefficient (308.15 K, x2 = 0.3): 9.5e-10 m2/s; binary diffusion coefficient (308.15 K, x2 = 0.5): 9.9e-10 m2/s; binary diffusion coefficient (308.15 K, x2 = 0.7): 1.28e-09 m2/s; binary diffusion coefficient (308.15 K, x2 = 0.9): 1.6e-09 m2/s; binary diffusion coefficient (308.15 K, x2 = 0.97): 1.76e-09 m2/s; binary diffusion coefficient (308.15 K, x2 = 1): 1.82e-09 m2/s
Cc1ccccc1 [toluene] + CCCO | 2.37e-09 m2/s | 1.81e-09 m2/s | 1e-09 m2/s | 8.5e-10 m2/s | 1.01e-09 m2/s | 1.28e-09 m2/s | 1.4e-09 m2/s | 2.67e-09 m2/s | 1.46e-09 m2/s | 
Cc1ccccc1 [toluene] + CCO | 2.94e-09 m2/s | 2.41e-09 m2/s | 1.22e-09 m2/s | 9.8e-10 m2/s | 1.16e-09 m2/s | 1.55e-09 m2/s | 1.7e-09 m2/s | 3.12e-09 m2/s | 1.74e-09 m2/s | binary diffusion coefficient (308.15 K, x2 = 0): 3.61e-09 m2/s; binary diffusion coefficient (308.15 K, x2 = 0.03): 3.4e-09 m2/s; binary diffusion coefficient (308.15 K, x2 = 0.1): 2.9e-09 m2/s; binary diffusion coefficient (308.15 K, x2 = 0.3): 1.7e-09 m2/s; binary diffusion coefficient (308.15 K, x2 = 0.5): 1.35e-09 m2/s; binary diffusion coefficient (308.15 K, x2 = 0.7): 1.59e-09 m2/s; binary diffusion coefficient (308.15 K, x2 = 0.9): 1.89e-09 m2/s; binary diffusion coefficient (308.15 K, x2 = 0.97): 2.04e-09 m2/s; binary diffusion coefficient (308.15 K, x2 = 1): 2.11e-09 m2/s
